From patent publication EP4775570A1, “CYP11A1 INHIBITOR, PREPARATION METHOD THEREFOR AND USE THEREOF” (Shenzhen Zhongge Biological Technology Co., Ltd., priority 2023, dated 2025)

Each molecule was assayed against T1, CYP11A1 (Homo sapiens, UniProt P05108) (assay: NCI-H295R cellular pregnenolone biosynthesis inhibition assay (ELISA method)). Conditions: IC50, NCI-H295R cells, 3 days incubation, pregnenolone in cell supernatant by ELISA.
T1 construct: host or cells: NCI-H295R
T1 sequence (P05108 40-521): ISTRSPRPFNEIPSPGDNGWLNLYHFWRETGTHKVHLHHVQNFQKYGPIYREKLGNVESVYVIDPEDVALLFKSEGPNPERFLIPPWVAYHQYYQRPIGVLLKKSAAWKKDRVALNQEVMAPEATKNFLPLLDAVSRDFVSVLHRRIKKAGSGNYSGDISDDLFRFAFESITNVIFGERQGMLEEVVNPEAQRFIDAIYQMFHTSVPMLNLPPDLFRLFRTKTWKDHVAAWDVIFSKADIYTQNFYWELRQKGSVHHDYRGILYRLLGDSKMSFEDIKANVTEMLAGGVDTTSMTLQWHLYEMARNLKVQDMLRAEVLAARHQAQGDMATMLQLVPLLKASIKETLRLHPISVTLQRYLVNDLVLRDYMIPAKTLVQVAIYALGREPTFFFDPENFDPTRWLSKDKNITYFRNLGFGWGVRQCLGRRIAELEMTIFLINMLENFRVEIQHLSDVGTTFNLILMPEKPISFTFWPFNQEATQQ
Format: cell-based
Description: The experiment aims to test the inhibitory effect of the compounds of the present disclosure on cellular pregnenolone biosynthesis, and to assess the inhibitory effect of the compounds on CYP11A1 target based on their IC50 values.
NCI-H295R cells (MINGZHOUBIO, MZ-2138) cultured in NCI-H295R complete medium (MINGZHOUBIO, MCM-0399).
Using culture medium, NCI-H295R cells were seeded into a new 384-well cell culture plate (Greiner, 781091) at a density of 5,000 cells per well, with 45µL of cell suspension per well. The test compounds were prepared by adding 5µL of compound solution at 10× concentration to each well, to a maximum final concentration of 10µM, followed by 3× serial dilution for 10 points, with a final DMSO concentration of 0.1%, centrifuging at 1,000 rpm for 1 minute at room temperature, and then incubating in a 5% CO2 cell incubator at 37°C for 3 days.
Pregnenolone ELISA kit (Abnova, KA1912) was used for detecting the content of pregnenolone in the supernatant of cell culture. Before detection, the reagents were allowed to come back to room temperature for 1 hour. After taking out the 384-well plate, the cellular supernatant was pipetted and subjected to 5× dilution with the Assay Buffer provided in the kit. A working solution of competitive molecule and a washing solution in accordance with the instructions was prepared. 50µL of diluted cellular supernatant were pipetted into the 96-well plate provided in the ELISA kit, added with 100µL of working solution of competitive molecule per well and the plate was incubated at room temperature for 1.5 hours. After discarding the liquid, the plate was washed with 300µL of washing solution per well three times and dried. After adding 150 µL of substrate chromogenic solution per well, the plate was incubated at room temperature for 10-15 minutes. After adding 50 µL of termination solution per well, the plate was incubated at room temperature for 10-15 minutes and read for absorbance at 450nm with Envision HTS Multilabel Reader.
The wells added with 1µM ODM-208 were defined as 100% inhibition (positive control), the wells containing DMSO at a final concentration of 0.1% were defined as 0% inhibition (negative control), and inhibitory ratio = (absorbance of tested sample - average absorbance of negative control)/(average absorbance of positive control - average absorbance of negative control)*100%. The data were subjected to four-parameter fitting using GraphPad Prism to calculate the IC50 values of the compounds.
CS(=O)(=O)N1CCC(COc2cc(F)c(CN3Cc4ccccc4C3)cc2C#N)CC1 [compound 30] was tested, and the IC50 was < 100 nM.

Same assay, conditions: NCI-H295R cells, 3 days incubation, pregnenolone in cell supernatant by ELISA; read-out: IC50
In the case of Cn1c(CN2Cc3ccccc3C2)c(F)cc(C(F)CC2CCN(S(C)(=O)=O)CC2)c1=O (stereo not drawn) [compound 124], the IC50 is reported as < 100 nM. For OCCN1CCC(COc2cc(F)c(CN3Cc4ccccc4C3)cc2Br)CC1 [compound 55], the IC50 was > 300 nM. For CC(C)Oc1cc(CN2Cc3ccccc3C2)ccc1OCC1CCN(S(C)(=O)=O)CC1 [compound 21], the IC50 was < 100 nM. In the case of CC(=O)N1CCC(CCSc2ccc(CN3Cc4ccccc4C3)cc2F)CC1 [compound 49], the IC50 is reported as < 100 nM. CS(=O)(=O)N1CCC(COc2ccc(CN3Cc4ccccc4C3)cc2F)CC1 [compound 15] was tested, and the IC50 was < 100 nM. For CS(=O)(=O)N1CCC(CN2CCOc3cc(CN4Cc5ccccc5C4)ccc32)CC1 [compound 57], the IC50 was > 300 nM. In the case of CS(=O)(=O)N1CCC(CCc2sc(CN3Cc4ccccc4C3)cc2Br)CC1 [compound 95], the IC50 is reported as > 300 nM. CC(C)c1cc(CN2Cc3ccccc3C2)ccc1OCC1CCN(S(C)(=O)=O)CC1 [compound 14] was tested, and the IC50 was < 100 nM. With COc1cc(CN2Cc3ccccc3C2)c(F)cc1OCC1CCN(S(C)(=O)=O)CC1 [compound 22] the IC50 was < 100 nM. In the case of COc1cc(CN2Cc3ccncc3C2)ccc1CCC1CCN(S(C)(=O)=O)CC1 [compound 63], the IC50 is reported as < 100 nM. With C=C(C)c1cc(CN2Cc3ccccc3C2)ccc1OCC1CCN(S(C)(=O)=O)CC1 [compound 27] the IC50 was 100 to 300 nM. In the case of Cn1c(CN2Cc3ccccc3C2)c(F)cc(CCC2CCN(S(C)(=O)=O)CC2(C)C)c1=O (stereo not drawn) [compound 114], the IC50 is reported as < 100 nM. CS(=O)(=O)N1CCC2(CCN(c3ccc(CN4Cc5ccccc5C4)cc3F)CC2)C1 [compound 58] was tested, and the IC50 was > 300 nM. COc1cc(CN2Cc3ccccc3C2)ncc1OCC1CCN(S(C)(=O)=O)CC1 [compound 2] was tested, and the IC50 was > 300 nM. In the case of CS(=O)(=O)N1CCC(COc2ccc(CN3Cc4ccccc4C3)cc2-c2nccs2)CC1 [compound 38], the IC50 is reported as > 300 nM. Molecule Cc1cc(CN2Cc3ccccc3C2)cc(F)c1OCC1CCN(S(C)(=O)=O)CC1 [compound 35] has an IC50 of 100 to 300 nM. In the case of COc1cc(CN2Cc3ccccc3C2)c(F)cc1CCC1CCN(S(C)(=O)=O)CC1 [compound 41], the IC50 is reported as 100 to 300 nM. In the case of CS(=O)(=O)N1CCC(COc2cc(F)c(CN3Cc4ccccc4C3)cc2Br)CC1 [compound 25], the IC50 is reported as < 100 nM. For COc1c(CCC2CCN(S(C)(=O)=O)CC2)ccc(CN2Cc3ccccc3C2)c1F [compound 85], the IC50 was < 100 nM. [2H]C([2H])(c1c(F)cc(CCC2CCN(S(C)(=O)=O)CC2)c(=O)n1C)N1Cc2ccccc2C1 [compound 116] was tested, and the IC50 was < 100 nM. In the case of COc1cc(CN2Cc3ccccc3C2)ccc1CCC1CCN(S(=O)(=O)C2CC2)CC1 [compound 69], the IC50 is reported as < 100 nM. C=CCOc1cc(CN2Cc3ccccc3C2)ccc1OCC1CCN(S(C)(=O)=O)CC1 [compound 29] was tested, and the IC50 was < 100 nM. For CS(=O)(=O)N1CCC(CCOc2cc(CN3Cc4ccccc4C3)ccn2)CC1 [compound 6], the IC50 was > 300 nM. With CS(=O)(=O)N1CCC(COc2ccc(CN3Cc4ccccc4C3)nc2)CC1 [compound 8] the IC50 was > 300 nM. In the case of Cn1c(CN2Cc3cccnc3C2)c(F)cc(CCC2CCN(S(C)(=O)=O)CC2)c1=O [compound 98], the IC50 is reported as 100 to 300 nM. For CC(C)(C)OC(=O)N1CCC2(CCN(c3ccc(CN4Cc5ccccc5C4)cc3F)CC2)C1 [compound 51], the IC50 was > 300 nM. For COc1cc(CN2Cc3ccccc3C2)ccc1OCC1CCN(S(C)(=O)=O)CC1 [compound 19], the IC50 was 100 to 300 nM. In the case of Cn1c(CN2Cc3ccccc3C2)c(F)cc(C=CC2CCN(S(C)(=O)=O)CC2)c1=O [compound 104], the IC50 is reported as < 100 nM. Cn1c(CN2Cc3ccccc3C2)c(F)cc(-c2cnc3c(c2)CCN(S(C)(=O)=O)C3)c1=O [compound 126] was tested, and the IC50 was < 100 nM. In the case of Cn1c(CN2Cc3ccccc3C2)c(F)cc(CCN2CCN(S(C)(=O)=O)CC2)c1=O [compound 118], the IC50 is reported as 100 to 300 nM. For COc1cc(CN2Cc3ccccc3C2)ccc1CCC1(O)CCN(S(C)(=O)=O)CC1 [compound 92], the IC50 was 100 to 300 nM. Work on COc1cc(CN2Cc3ccccc3C2)ccc1CCC1CCN(C(=O)C(F)(F)F)CC1 [compound 71] yielded an IC50 of 100 to 300 nM. With COc1cc(CN2Cc3ccccc3C2)ccc1Oc1cccc2c1CCN(S(C)(=O)=O)C2 [compound 45] the IC50 was > 300 nM. With Cn1c(CN2Cc3ccncc3C2)c(F)cc(CCC2CCN(S(C)(=O)=O)CC2)c1=O [compound 99] the IC50 was > 300 nM. For Cn1c(CN2Cc3ccccc3C2)c(F)cc(CCC2CCCN(S(C)(=O)=O)C2)c1=O (stereo not drawn) [compound 91], the IC50 was > 300 nM. CC(C)Oc1cc(CN2Cc3ccccc3C2)ccc1CCC1CCN(S(C)(=O)=O)CC1 [compound 76] was tested, and the IC50 was 100 to 300 nM. With COc1c(CCC2CCN(S(C)(=O)=O)CC2)cc(F)c(CN2Cc3ccccc3C2)c1F [compound 64] the IC50 was < 100 nM. In the case of CC1CC(CCc2cc(F)c(CN3Cc4ccccc4C3)n(C)c2=O)CCN1C(=O)OC(C)(C)C (stereo not drawn) [compound 117], the IC50 is reported as < 100 nM. In the case of CS(=O)(=O)N1CCC(CCc2ccc(CN3Cc4ccccc4C3)cc2Cl)CC1 [compound 84], the IC50 is reported as < 100 nM. For Cn1c(CN2Cc3cccc(F)c3C2)c(F)cc(CCC2CCN(S(C)(=O)=O)CC2)c1=O [compound 100], the IC50 was > 300 nM. Cn1cc(OCC2CCN(S(C)(=O)=O)CC2)c(=O)cc1CN1Cc2ccccc2C1 [compound 1] was tested, and the IC50 was > 300 nM. In the case of CCS(=O)(=O)N1CCC(C=Cc2cc(F)c(CN3Cc4ccccc4C3)n(C)c2=O)CC1 [compound 110], the IC50 is reported as < 100 nM. In the case of CCc1cc(CN2Cc3ccccc3C2)ccc1OCC1CCN(S(C)(=O)=O)CC1 [compound 13], the IC50 is reported as < 100 nM. With COC(=O)N1CCC(CCc2ccc(CN3Cc4ccccc4C3)cc2OC)CC1 [compound 80] the IC50 was < 100 nM. CC(=O)N1CCN(CCc2cc(F)c(CN3Cc4ccccc4C3)n(C)c2=O)CC1 [compound 119] gave an IC50 of 100 to 300 nM. For COc1cc(CN2Cc3cccc(F)c3C2)c(F)cc1CCC1CCN(S(C)(=O)=O)CC1 [compound 66], the IC50 was < 100 nM. COc1nc(CN2Cc3ccccc3C2)c(F)cc1CCC1CCN(S(C)(=O)=O)CC1 [compound 89] was tested, and the IC50 was 100 to 300 nM. For COc1cc(OCC2CCN(S(C)(=O)=O)CC2)c(F)cc1CN1Cc2ccccc2C1 [compound 23], the IC50 was > 300 nM. With [2H]C(c1c(F)cc(CCC2CCN(S(C)(=O)=O)CC2)c(=O)n1C)N1Cc2ccccc2C1 (stereo not drawn) [compound 108] the IC50 was < 100 nM. CC(C)(C)OC(=O)N1CCC(COc2cc(F)c(CN3Cc4ccccc4C3)cc2Br)CC1 [compound 46] was tested, and the IC50 was < 100 nM. For CNC(=O)c1cc(CN2Cc3ccccc3C2)ccc1OCC1CCN(S(C)(=O)=O)CC1 [compound 24], the IC50 was > 300 nM. Cn1c(CN2Cc3ccccc3C2)c(F)cc(C(F)=CC2CCN(C(=O)OC(C)(C)C)CC2)c1=O [compound 128] gave an IC50 of 100 to 300 nM. For CS(=O)(=O)N1CCC(CCc2ccc(CN3Cc4ccccc4C3)cc2F)CC1 [compound 40], the IC50 was < 100 nM. With COc1nc(CN2Cc3ccccc3C2)ccc1OCC1CCN(S(C)(=O)=O)CC1 [compound 4] the IC50 was 100 to 300 nM. In the case of Cn1c(CN2Cc3ccccc3C2)c(F)cc(-c2ccc3c(c2)CCN(S(C)(=O)=O)C3)c1=O [compound 120], the IC50 is reported as < 100 nM. CS(=O)(=O)N1CCC(COc2cc(F)c(CN3Cc4ccccc4C3)cc2F)CC1 [compound 32] was tested, and the IC50 was < 100 nM. Molecule Cn1c(CN2Cc3ccccc3C2)c(F)cc(C=CC2CCN(C(=O)OC(C)(C)C)CC2)c1=O [compound 103] has an IC50 of 100 to 300 nM. With CS(=O)(=O)N1CCC(COc2ccc(CN3Cc4ccccc4C3)cc2Br)CC1 [compound 17] the IC50 was < 100 nM. With CC(C)c1cc(CN2Cc3ccccc3C2)ccc1CCC1CCN(S(C)(=O)=O)CC1 [compound 74] the IC50 was < 100 nM. Work on C=CS(=O)(=O)N1CCC(CCc2ccc(CN3Cc4ccccc4C3)cc2OC)CC1 [compound 82] yielded an IC50 of 100 to 300 nM. For CS(=O)(=O)N1CCC(CCc2ccc(CN3Cc4ccccc4C3)o2)CC1 [compound 83], the IC50 was > 300 nM. With CS(=O)(=O)N1CCC(COc2cc(F)c(CN3Cc4ccccc4C3)cc2O)CC1 [compound 52] the IC50 was < 100 nM.
